These results are taken from patent publication US20240150293A1, “SPIROCYCLOHEXANE DERIVATIVES, PHARMACEUTICAL COMPOSITIONS CONTAINING THEM AND THEIR USES AS ANTI-APOPTOTIC INHIBITORS” (LES LABORATOIRES SERVIER, priority 2021, published 2024).

Read-outs that look alike come from different tables or passages of the source.

For experiment [1], the system named is H929 multiple myeloma tumor line. Description: In vitro cytotoxicity, MTT assay (Example B, Method A). The class given is cell-based. The note with it: H929 cells, 48 hours exposure, read-out: C50. The procedure:
The cytotoxicity studies were carried out on the H929 multiple myeloma tumor line.
The cells are distributed onto microplates and exposed to the test compounds for 48 hours. The cell viability is then quantified by a colorimetric assay, the Microculture Tetrazolium Assay (Carmichael et al, Cancer Res. 1987, 47, 939-942).
The results are expressed in C50 which means concentration corresponding to […] of effect/inhibition.
(Tetrazolium assays rely on reduction of a dye to a coloured formazan, in cell work by metabolically active cells.)

The target in another experiment is Mcl-1 protein (UniProtKB Q07820) (Homo sapiens (Human), UniProt Q07820). As to the kind of experiment: Inhibition of Mcl-1 by the fluorescence polarisation assay (Example A, Method A). In kind it is binding. The following applies: fluorescence polarization assay. The gist of the method: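 Protein (5 nM) and fluorescein-tagged peptide tracer (1 nM) incubated with 11-point compound series for 2 h at room temperature in HEPES/NaCl/Tween 20 buffer, pH 7.4, 5% DMSO. Displacement read as decrease in polarisation; IC50 fitted by 4-parameter logistic, converted to Ki (cKi or eKi).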
Chain of Mcl-1 protein (Q07820 whole entry): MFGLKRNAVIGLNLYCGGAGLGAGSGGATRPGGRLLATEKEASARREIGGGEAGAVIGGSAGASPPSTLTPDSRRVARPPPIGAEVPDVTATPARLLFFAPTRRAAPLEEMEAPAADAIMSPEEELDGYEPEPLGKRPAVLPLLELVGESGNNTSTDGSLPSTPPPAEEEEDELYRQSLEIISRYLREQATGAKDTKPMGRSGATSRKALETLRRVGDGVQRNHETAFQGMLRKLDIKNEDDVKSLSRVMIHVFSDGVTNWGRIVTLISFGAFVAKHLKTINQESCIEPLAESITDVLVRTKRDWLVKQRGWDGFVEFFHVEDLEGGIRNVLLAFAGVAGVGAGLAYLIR
Background: In fluorescence polarisation assays a small probe gives low polarisation when free and higher when bound to something large.

Broadly, the Ki is the equilibrium dissociation constant of an inhibitor or competing ligand from its target. Take `CC(C)C(COc1ccccc1)CC1Cc2ccccc2[C@]12CC[C@@](Nc1cccc(Cl)c1)(C(=O)O)CC2` (single isomer, unassigned) [Example 530, (1r,4r)-4-(3-chloroanilino)-2′-[3-methyl-2-(phenoxymethyl)butyl]-2′,3′-dihydrospiro[cyclohexane-1,1′-indene]-4-carboxylic acid]: the IC50 in experiment [1] (Homo sapiens, NCI-H929, 48 h) came to 15.3 µM. For the same compound, the inhibition constant (Ki) at Mcl-1 protein amounted to 2.05 µM.
As to `CC(C)C(COc1ccccc1)CC1Cc2ccccc2[C@]12CC[C@@](Nc1cccc(Cl)c1)(C(=O)O)CC2` (single isomer, unassigned) [Example 531, (1r,4r)-4-(3-chloroanilino)-2′-[3-methyl-2-(phenoxymethyl)butyl]-2′,3′-dihydrospiro[cyclohexane-1,1′-indene]-4-carboxylic acid], the IC50 in experiment [1] was determined as 15.9 µM. Besides, on Mcl-1 protein, the inhibition constant (Ki) worked out at 5.97 µM.
In the case of `CC(C)C(COc1ccncc1)CC1Cc2ccccc2[C@]12CC[C@@](Nc1cccc(Cl)c1)(C(=O)O)CC2` (single isomer, unassigned) [Example 532, (1r,4r)-4-(3-chloroanilino)-2′-(3-methyl-2-{[(pyridin-4-yl)oxy]methyl}butyl)-2′,3′-dihydrospiro[cyclohexane-1,1′-indene]-4-carboxylic acid], the IC50 in experiment [1] came to 12.6 µM. Besides, on Mcl-1 protein, the Ki was 0.809 µM.
In the same order, the values of `CC(C)C(COc1ccncc1)CC1Cc2ccccc2[C@]12CC[C@@](Nc1cccc(Cl)c1)(C(=O)O)CC2` (single isomer, unassigned) [Example 533, (1r,4r)-4-(3-chloroanilino)-2′-(3-methyl-2-{[(pyridin-4-yl)oxy]methyl}butyl)-2′,3′-dihydrospiro[cyclohexane-1,1′-indene]-4-carboxylic acid] are 14.5 µM and 0.785 µM.
In the same order, the values of `CC(C)C(COc1ccncc1)CC1Cc2ccccc2[C@]12CC[C@@](Nc1cccc(Cl)c1)(C(=O)O)CC2` (single isomer, unassigned) [Example 535, (1r,4r)-4-(3-chloroanilino)-2′-(3-methyl-2-{[(pyridin-4-yl)oxy]methyl}butyl)-2′,3′-dihydrospiro[cyclohexane-1,1′-indene]-4-carboxylic acid] are 30 µM and 2.28 µM.
As for `CC1CCc2nccc(OC[C@H](C)CC3Cc4ccccc4[C@]34CC[C@@](Nc3cccc(Cl)c3)(C(=O)O)CC4)c21` (single isomer, unassigned) [Example 600], the IC50 in experiment [1] (Homo sapiens, NCI-H929, 48 h) was 0.512 µM. Besides, the inhibition constant Ki on Mcl-1 protein amounted to 0.00426 µM.
In the same order, the values of `O=C1c2ccccc2[C@]2(CC[C@@](Nc3cccc(Cl)c3)(C(=O)O)CC2)N1CCCOc1ccccc1` [Example 34, (1s,4s)-4-(3-chloroanilino)-3′-oxo-2′-(3-phenoxypropyl)-2′,3′-dihydrospiro[cyclohexane-1,1′-isoindole]-4-carboxylic acid] are 30 µM and 0.648 µM.
For `O=C(O)[C@]1(Nc2cccc(Cl)c2)CC[C@@]2(CC1)c1ccccc1CN2CCCOc1ccccc1` [Example 35, (1s,4s)-4-(3-chloroanilino)-2′-(3-phenoxypropyl)-2′,3′-dihydrospiro[cyclohexane-1,1′-isoindole]-4-carboxylic acid] the same measures were 30 µM and 0.332 µM.
For `O=C(O)C1(Nc2cccc(Br)c2)CCC2(CCc3ccccc32)CC1` (stereo not shown) [Example 57, 4-(3-bromoanilino)-2′,3′-dihydrospiro[cyclohexane-1,1′-indene]-4-carboxylic acid] the same measures were 30 µM and 0.934 µM.
In the case of `O=C(O)[C@]1(Nc2cccc(Br)c2)CC[C@@]2(C=Cc3c(Br)cccc32)CC1` [Example 60, (1r,4r)-4′-bromo-4-(3-bromoanilino)spiro[cyclohexane-1,1′-indene]-4-carboxylic acid], in experiment [1] (Homo sapiens, NCI-H929, 48 h), the IC50 came to 30 µM. On Mcl-1 protein, the inhibitory constant (Ki) is 0.276 µM.
For `COc1ccc2c(c1)[C@]1(CC2)CC[C@](Nc2cccc(Br)c2)(C(=O)O)CC1` [Example 61, (1r,4s)-4-(3-bromoanilino)-6′-methoxy-2′,3′-dihydrospiro[cyclohexane-1,1′-indene]-4-carboxylic acid] the same measures were 30 µM and 0.358 µM.
As for `C[C@@H]1Cc2ccccc2[C@]12CC[C@@](Nc1cccc(Br)c1)(C(=O)O)CC2` [Example 144, (1r,2′R,4R)-4-(3-bromoanilino)-2′-methyl-2′,3′-dihydrospiro[cyclohexane-1,1′-indene]-4-carboxylic acid], the IC50 in experiment [1] (Homo sapiens, NCI-H929, 48 h) amounted to 30 µM. Besides, the Ki at Mcl-1 protein turned out to be 0.182 µM.
In the case of `C[C@H]1Cc2ccccc2[C@]12CC[C@@](Nc1cccc(Br)c1)(C(=O)O)CC2` [Example 145, (1r,2′S,4S)-4-(3-bromoanilino)-2′-methyl-2′,3′-dihydrospiro[cyclohexane-1,1′-indene]-4-carboxylic acid], the IC50 in experiment [1] (Homo sapiens, NCI-H929, 48 h) came to 30 µM. Further, at Mcl-1 protein, the Ki was determined as 0.414 µM.
Turning to `CCC1Cc2ccccc2C12CCC(Nc1cccc(Br)c1)(C(=O)O)CC2` (stereo not shown) [Example 147, 4-(3-bromoanilino)-2′-ethyl-2′,3′-dihydrospiro[cyclohexane-1,1′-indene]-4-carboxylic acid], the IC50 in experiment [1] (Homo sapiens, NCI-H929, 48 h) amounted to 30 µM. Besides, at Mcl-1 protein, the inhibitory constant (Ki) came to 0.816 µM.
For `O=C(O)[C@]1(Nc2cccc(Cl)c2)CC[C@]2(CC1)C(C#CCOc1ccccc1)=Cc1ccccc12` [Example 172, (1s,4s)-4-(3-chloroanilino)-2′-(3-phenoxyprop-1-yn-1-yl)spiro[cyclohexane-1,1′-indene]-4-carboxylic acid] the same measures were 18.7 µM and 0.0558 µM.
In the same order, the values of `O=C(O)[C@]1(Nc2cccc(Cl)c2)CC[C@]2(CC1)C(CCOc1ccncc1F)=Cc1ccccc12` [Example 190, (1r,4r)-4-(3-chloroanilino)-2′-{2-[(3-fluoropyridin-4-yl)oxy]ethyl}spiro[cyclohexane-1,1′-indene]-4-carboxylic acid] are 6.4 µM and 0.0443 µM.
For `O=C(O)[C@]1(Nc2cccc(Cl)c2)CC[C@]2(CC1)C(CCOc1ccnc(F)c1)=Cc1ccccc12` [Example 191, (1r,4r)-4-(3-chloroanilino)-2′-{2-[(2-fluoropyridin-4-yl)oxy]ethyl}spiro[cyclohexane-1,1′-indene]-4-carboxylic acid] the same measures were 5.72 µM and 0.0697 µM.
`O=C(O)[C@]1(Nc2cccc(Cl)c2)CC[C@]2(CC1)C(CCOc1cccc3[nH]ccc13)=Cc1ccccc12` [Example 192, (1r,4r)-4-(3-chloroanilino)-2′-{2-[(1H-indol-4-yl)oxy]ethyl}spiro[cyclohexane-1,1′-indene]-4-carboxylic acid]: in experiment [1] (Homo sapiens, NCI-H929, 48 h), the IC50 was 4.19 µM. For the same compound, the Ki on Mcl-1 protein worked out at 0.0615 µM.
For `O=C(O)[C@]1(Nc2cccc(Cl)c2)CC[C@@]2(CC1)c1ccccc1C[C@H]2c1cccc(Oc2ccccc2)c1` [Example 323, (1r,2′S,4S)-4-(3-chloroanilino)-2′-(3-phenoxyphenyl)-2′,3′-dihydrospiro[cyclohexane-1,1′-indene]-4-carboxylic acid], the IC50 in experiment [1] (Homo sapiens, NCI-H929, 48 h) was found to be 10.5 µM. Moreover, the Ki at Mcl-1 protein was determined as 0.106 µM.
As to `O=C(O)[C@]1(Nc2cccc(Cl)c2)CC[C@@]2(CC1)c1ccccc1C[C@H]2c1cccc(OCc2ccccc2)c1` [Example 332, (1r,2′S,4S)-2′-[3-(benzyloxy)phenyl]-4-(3-chloroanilino)-2′,3′-dihydrospiro[cyclohexane-1,1′-indene]-4-carboxylic acid], the IC50 in experiment [1] (Homo sapiens, NCI-H929, 48 h) turned out to be 16.4 µM. Further, the Ki at Mcl-1 protein was 0.475 µM.
On to `O=C(O)[C@]1(Nc2cccc(Cl)c2)CC[C@@]2(CC1)c1ccccc1C[C@H]2c1cc2ccccc2o1` [Example 337, (1r,2′R,4R)-2′-(1-benzofuran-2-yl)-4-(3-chloroanilino)-2′,3′-dihydrospiro[cyclohexane-1,1′-indene]-4-carboxylic acid], for which the IC50 in experiment [1] (Homo sapiens, NCI-H929, 48 h) amounted to 30 µM. The inhibition constant Ki on Mcl-1 protein stood at 0.247 µM.
On to `O=C(O)[C@]1(Nc2cccc(Cl)c2)CC[C@]2(CC1)C(c1ccc(Oc3ccccc3)cc1)=Cc1ccccc12` [Example 341, (1s,4s)-4-(3-chloroanilino)-2′-(4-phenoxyphenyl)spiro[cyclohexane-1,1′-indene]-4-carboxylic acid], for which the IC50 in experiment [1] (Homo sapiens, NCI-H929, 48 h) stood at 9.26 µM. For the same compound, at Mcl-1 protein, the Ki was 0.159 µM.
With `O=C(O)[C@]1(Nc2cccc(Cl)c2)CC[C@@]2(CC1)c1ccccc1C[C@H]2c1ccc(Oc2ccccc2)cc1` [Example 358, (1r,2′S,4S)-4-(3-chloroanilino)-2′-(4-phenoxyphenyl)-2′,3′-dihydrospiro[cyclohexane-1,1′-indene]-4-carboxylic acid], in experiment [1] (Homo sapiens, NCI-H929, 48 h), the IC50 was 7.43 µM. Besides, at Mcl-1 protein, the Ki was 0.0622 µM.
For `O=C(O)[C@]1(Nc2cccc(Cl)c2)CC[C@]2(CC1)C(c1cccc(OCc3ccncc3)c1)=Cc1ccccc12` [Example 362, (1s,4s)-4-(3-chloroanilino)-2′-{3-[(pyridin-4-yl)methoxy]phenyl}spiro[cyclohexane-1,1′-indene]-4-carboxylic acid] the same measures were 21.6 µM and 0.174 µM.
In the same order, the values of `O=C(O)[C@]1(Nc2cccc(Cl)c2)CC[C@]2(CC1)C(c1cccc(OCc3cccnc3)c1)=Cc1ccccc12` [Example 363, (1s,4s)-4-(3-chloroanilino)-2′-{3-[(pyridin-3-yl)methoxy]phenyl}spiro[cyclohexane-1,1′-indene]-4-carboxylic acid] are 30 µM and 0.227 µM.
With `O=C(O)[C@]1(Nc2cccc(Cl)c2)CC[C@]2(CC1)C(CCCCc1ccccc1)=Cc1ccccc12` [Example 393, (1r,4r)-4-(3-chloroanilino)-2′-(4-phenylbutyl)spiro[cyclohexane-1,1′-indene]-4-carboxylic acid], the IC50 in experiment [1] (Homo sapiens, NCI-H929, 48 h) was 12 µM. Moreover, the inhibitory constant (Ki) at Mcl-1 protein was found to be 0.15 µM.
